Experimental data: patent US10143678B1, “Method of treatment of preventing hyperglycemia complications” (Sunway Biotech Co., LTD, priority 2015, dated 2018)
Marks after values point to notes of the source that are not given here.

Tests used:
Assay type in all cases: in vivo
[1] = tested on: SD rats fed with high fat and fructose diet; assay: Liver, kidney and adipose tissue weight after sacrifice; conditions: HFFD-fed SD rats, oral 10 weeks
From the text: (§1) The present invention provides a method of treatment of preventing hyperglycemia complications using at least one pharmaceutical made from a red mold product, wherein the red mold product is a red mold rice or a red mold Dioscorea, and the pharmaceutical is an extract obtained from the red mold product. The extract is Monascin, Ankaflavin, or a combination of Monascin and Ankaflavin. […] Moreover, in order to verify the practicability of the method of treatment of preventing hyperglycemia complications proposed by the present invention, a particularly-arranged of animal experiment is completed by inventors. After 1-week pre-feeding, several SD rats are divided into 9 experimental groups for carrying out 10-week animal experiment.
Insulin is used for impelling the absorption and utilization of blood glucose in liver, muscle and adipose tissue. Because white adipose tissue (WAT) is used for storing triglycerides (TG) transformed from blood glucose, a large amount of accumulation of adipocytes would cause the occurrence of inflammatory response so as to induce lipolysis action. Therefore, the inflammatory-induced lipolysis action would produce a large amount of glycerin and free fatty acid (FFA), so as to aggravate the production of Hyperglycemia, fatty liver, and high blood ketone. Based on above reasons, the effects provided by the different test samples on liver, kidney, and adipose tissue weight of the rats are needed to be determined.
For carrying out the determination of liver, kidney, and adipose tissue weight, it needs to sacrifice the rats. After sacrificing the rat, blood to be determined is collected from the intraperitoneal of the rat by using syringes, and then the collected blood are disposed into a 2-mL microcentrifuge tube. After staying for 5 minutes, the microcentrifuge tube carrying with blood is treated with a centrifugation process, and then the serum of the blood is stored in an environment with −20° C. After that, the liver, kidney, and adipose tissue are taken out of the rat.

GLUT-4 = GLUT-4 expression in adipose tissue; conditions: FIG. 7, vs HFFD group; HFFD-fed SD rats, oral 10 weeks; 1-fold dose mg/kg bw/day: MF 78.06, RMD 104.17, Monascin 0.31 (MS1X), Ankaflavin 0.16 (AK1X), MS-AK 0.31 + 0.16
From the text: as §1

[2] = tested on: SD rats fed with high fat and fructose diet; assay: Oral glucose tolerance test (OGTT), AUC of blood glucose; conditions: FIG. 2, vs HFFD group, oral 10 weeks, 1-fold dose mg/kg bw/day: MF 78.06, RMD 104.17, Monascin 0.31 (MS1X), Ankaflavin 0.16 (AK1X), MS-AK 0.31 + 0.16
From the text: as §1

[3] = tested on: Reactive Oxygen Species (ROS); assay: ROS concentration in liver; conditions: FIG. 4, vs HFFD group; HFFD-fed SD rats, oral 10 weeks; 1-fold dose mg/kg bw/day: MF 78.06, RMD 104.17, Monascin 0.31 (MS1X), Ankaflavin 0.16 (AK1X), MS-AK 0.31 + 0.16
From the text: as §1

GLUT-2 = GLUT-2 expression in adipose tissue; conditions: FIG. 6, vs HFFD group; HFFD-fed SD rats, oral 10 weeks; 1-fold dose mg/kg bw/day: MF 78.06, RMD 104.17, Monascin 0.31 (MS1X), Ankaflavin 0.16 (AK1X), MS-AK 0.31 + 0.16
From the text: as §1

TNF-α = TNF-α expression in adipose tissue; conditions: FIG. 5, vs HFFD group; HFFD-fed SD rats, oral 10 weeks; 1-fold dose mg/kg bw/day: MF 78.06, RMD 104.17, Monascin 0.31 (MS1X), Ankaflavin 0.16 (AK1X), MS-AK 0.31 + 0.16
From the text: as §1

IL-1β = IL-1β expression in adipose tissue; conditions: FIG. 9, vs HFFD group; HFFD-fed SD rats, oral 10 weeks; 1-fold dose mg/kg bw/day: MF 78.06, RMD 104.17, Monascin 0.31 (MS1X), Ankaflavin 0.16 (AK1X), MS-AK 0.31 + 0.16
From the text: as §1
(§2) Please refer to FIG. 8 and FIG. 9, where a statistical bar graph of IL-6 expression in adipose tissue and a statistical bar graph of IL-1β expression in adipose tissue are provided.

HIF-1α = HIF-1α expression in adipose tissue; conditions: FIG. 10, vs HFFD group; HFFD-fed SD rats, oral 10 weeks; 1-fold dose mg/kg bw/day: MF 78.06, RMD 104.17, Monascin 0.31 (MS1X), Ankaflavin 0.16 (AK1X), MS-AK 0.31 + 0.16
From the text: as §1

adiponectin = assay: Adiponectin expression in adipose tissue; conditions: FIG. 3, vs HFFD group; HFFD-fed SD rats, oral 10 weeks; 1-fold dose mg/kg bw/day: MF 78.06, RMD 104.17, Monascin 0.31 (MS1X), Ankaflavin 0.16 (AK1X), MS-AK 0.31 + 0.16
From the text: as §1

IL-6 = IL-6 expression in adipose tissue; conditions: FIG. 8, vs HFFD group; HFFD-fed SD rats, oral 10 weeks; 1-fold dose mg/kg bw/day: MF 78.06, RMD 104.17, Monascin 0.31 (MS1X), Ankaflavin 0.16 (AK1X), MS-AK 0.31 + 0.16
From the text: as §1, §2

[4] = tested on: SD rats fed with high fat and fructose diet; assay: Histomorphology of liver slices (fatty liver); conditions: FIG. 11, vs HFFD group, oral 10 weeks, 1-fold dose mg/kg bw/day: MF 78.06, RMD 104.17, Monascin 0.31 (MS1X), Ankaflavin 0.16 (AK1X), MS-AK 0.31 + 0.16
From the text: as §1

[5] = 1-fold dose mg/kg bw/day: MF 78.06, RMD 104.17, Monascin 0.31 (MS1X), Ankaflavin 0.16 (AK1X), MS-AK 0.31 + 0.16
[6] = 5-fold dose mg/kg bw/day: Monascin 1.56 (MS5X), Ankaflavin 0.78 (AK5X)

Row | Compound | Kidney weight [1, 5] | Occupying percentage of summation of the weights of peri-adrenal and epididymal adipose tissue in body Fat [1, 5] | Kidney weight [1, 6] | Occupying percentage of summation of the weights of peri-adrenal and epididymal adipose tissue in body Fat [1, 6] | percentage of GLUT-4 expression in adipose tissue (GLUT-4) | AUC (area under curve) of blood glucose [2] | ROS level in liver [3] | percentage of GLUT-2 expression in adipose tissue (GLUT-2) | percentage of TNF-α expression in adipose tissue (TNF-α) | percentage of IL-1β expression in adipose tissue (IL-1β) | percentage of HIF-1α expression in adipose tissue (HIF-1α) | percentage of adiponectin expression in adipose tissue (adiponectin) | percentage of IL-6 expression in adipose tissue (IL-6) | formation of fatty liver [4]
1 | C/C=C/C1=CC2=C(CO1)C(=O)[C@]1(C)OC(=O)[C@H](C(=O)CCCCCCC)[C@H]1C2 [Ankaflavin] | 3.72 ± 0.31^ab | 4.32 ± 0.59^b % | 3.55 ± 0.29^ab | 4.30 ± 0.53^b % |  |  |  |  |  |  |  |  |  | 
2 | CN(C)C(=N)N=C(N)N [MF, Metformin] | 3.64 ± 0.26^ab | 4.27 ± 1.43^bc % |  |  | largely enhanced | obviously lower | largely lowered | largely enhanced | largely reduced | largely lowered | largely lowered | largely enhanced | largely lowered | alleviated or solved
3 | C/C=C/C1=CC2=C(CO1)C(=O)[C@]1(C)OC(=O)[C@H](C(=O)CCCCC)[C@H]1C2 [Monascin] | 3.61 ± 0.20^ab | 5.12 ± 0.84^bc % | 3.71 ± 0.40^ab | 4.97 ± 0.80^bc % |  |  |  |  |  |  |  |  |  | 
